Tests used:
Dihydrofolate reductase [1] = target: Dihydrofolate reductase (Neisseria gonorrhoeae, UniProt P04174); assay: Inhibitory activity against dihydrofolate reductase (DHFR) of Neisseria gonorrhoea; settings: read-out: I50
Dihydrofolate reductase [2] = target: T1, Dihydrofolate reductase (Rattus norvegicus, UniProt Q920D2); assay: Inhibitory activity against dihydrofolate reductase (DHFR) from rat liver; settings: read-out: I50
T1 sequence (Q920D2 whole entry): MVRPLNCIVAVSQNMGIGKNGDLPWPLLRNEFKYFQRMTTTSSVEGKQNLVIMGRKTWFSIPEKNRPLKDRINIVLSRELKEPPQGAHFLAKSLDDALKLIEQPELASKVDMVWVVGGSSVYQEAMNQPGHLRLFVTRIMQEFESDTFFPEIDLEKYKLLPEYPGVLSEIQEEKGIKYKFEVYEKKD

[3] = target: Bifunctional dihydrofolate reductase-thymidylate synthase (Plasmodium berghei str. ANKA, UniProt Q27713); assay: Inhibitory activity against dihydrofolate reductase (DHFR) of Plasmodium berghei; settings: read-out: I50
Chain of Bifunctional dihydrofolate reductase-thymidylate synthase (Q27713 whole entry): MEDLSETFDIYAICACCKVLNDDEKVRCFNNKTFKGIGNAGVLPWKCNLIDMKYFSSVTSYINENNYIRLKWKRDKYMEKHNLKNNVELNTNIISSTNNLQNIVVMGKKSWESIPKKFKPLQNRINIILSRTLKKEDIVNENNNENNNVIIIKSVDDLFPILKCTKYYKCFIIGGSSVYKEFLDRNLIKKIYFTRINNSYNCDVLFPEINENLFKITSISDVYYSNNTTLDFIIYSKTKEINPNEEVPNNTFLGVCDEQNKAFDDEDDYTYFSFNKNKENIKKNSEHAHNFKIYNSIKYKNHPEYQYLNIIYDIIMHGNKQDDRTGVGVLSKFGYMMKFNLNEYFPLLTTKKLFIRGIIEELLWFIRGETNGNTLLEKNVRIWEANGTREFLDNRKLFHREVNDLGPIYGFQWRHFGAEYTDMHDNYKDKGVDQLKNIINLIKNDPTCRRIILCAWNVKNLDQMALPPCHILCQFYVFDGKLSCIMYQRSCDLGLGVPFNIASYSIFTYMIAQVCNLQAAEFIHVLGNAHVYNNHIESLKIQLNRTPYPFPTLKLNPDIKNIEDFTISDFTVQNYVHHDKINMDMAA

[4] = target: T2, Dihydrofolate reductase (Rattus norvegicus) (UniProt Q920D2); assay: Inhibitory activity against dihydrofolate reductase (DHFR) of Rat liver at a concentration 2 x 10 E -5 M
T2 sequence (whole entry): T1 sequence (Q920D2 whole entry)

[5] = target: T2, Dihydrofolate reductase (Rattus norvegicus); assay: Inhibitory activity against dihydrofolate reductase (DHFR) of Rat liver at a concentration 10 E -6 M

Chain of Dihydrofolate reductase (Neisseria gonorrhoeae, UniProt P04174) (P04174 whole entry): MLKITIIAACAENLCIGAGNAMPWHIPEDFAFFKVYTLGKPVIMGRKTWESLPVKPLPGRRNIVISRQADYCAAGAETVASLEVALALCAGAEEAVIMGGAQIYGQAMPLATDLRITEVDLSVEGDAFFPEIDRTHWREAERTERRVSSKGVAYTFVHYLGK

Row | IC50 (Dihydrofolate reductase [1]) | IC50 (Dihydrofolate reductase [2]) | IC50 [3] | Inhibition [4] | Inhibition [5] | Structure (SMILES)
1 | 810 nM | 520000 nM |  |  |  | COc1cc(Cc2cnc(N)nc2N)cc(OC)c1N
2 | 63 nM | 13000 nM | 23 nM |  |  | COc1c(C(C)C)cc(Cc2cnc(N)nc2N)cc1C(C)C
3 |  | 35000 nM |  |  |  | COc1cc(Cc2cnc(N)nc2N)ccc1O
4 | 60 nM | 21000 nM | 20 nM |  |  | CCCc1cc(Cc2cnc(N)nc2N)cc(CCC)c1OC
5 | 530 nM | 86000 nM |  |  |  | COc1ccc(Cc2cnc(N)nc2N)cc1OC [DIAVERIDINE]
6 | 390 nM | 370000 nM |  |  |  | Cc1cc(Cc2cnc(N)nc2N)cc(C(C)(C)C)c1N
7 | 155 nM | 58000 nM | 12.1 nM |  |  | CCc1cc(Cc2cnc(N)nc2N)cc(CC)c1OC
8 | 330 nM |  |  |  |  | COc1cc(Cc2cnc(N)nc2N)cc(OC)c1O [4-HYDROXYTRIMETHOPRIM]
9 | 319 nM |  | 42 nM | 0% |  | CCCCC(CC)COc1c(CC)cc(Cc2cnc(N)nc2N)cc1CC (centres undefined)
10 | 107 nM | 38000 nM |  |  |  | CCc1cc(Cc2cnc(N)nc2N)cc(CC)c1N
11 | 93 nM | 57000 nM |  |  |  | Nc1ncc(Cc2cc(Br)c(N)c(Br)c2)c(N)n1
12 | 318 nM | 130000 nM |  |  |  | Nc1ncc(Cc2cc(Cl)c(N)c(Cl)c2)c(N)n1
13 | 137 nM | 34000 nM |  |  |  | CC(C)c1cc(Cc2cnc(N)nc2N)cc(C(C)C)c1N
14 | 28 nM | 9900 nM | 53 nM |  |  | Nc1ncc(Cc2cc(I)c(O)c(I)c2)c(N)n1
15 | 75 nM | 27000 nM |  |  |  | CCc1cc(Cc2cnc(N)nc2N)cc(C(C)CC)c1N (centres undefined)
16 |  | 470000 nM |  |  |  | COc1cc(Cc2cnc(N)nc2N)ccc1N
17 | 526 nM | 71000 nM |  |  |  | Cc1cc(Cc2cnc(N)nc2N)cc(C)c1O

The remaining lines, values behind:

Row | Structure (SMILES) | IC50 (Dihydrofolate reductase [1]) | IC50 (Dihydrofolate reductase [2]) | IC50 [3] | Inhibition [4] | Inhibition [5]
18 | CC(C)(C)c1cc(Cc2cnc(N)nc2N)cc(C(C)(C)C)c1O | 61 nM | 34500 nM | 140 nM |  | 
19 | CCOc1c(CC)cc(Cc2cnc(N)nc2N)cc1CC | 356 nM | 52000 nM | 35 nM |  | 
20 | CCc1cc(Cc2cnc(N)nc2N)cc(CC)c1OCCO | 45 nM | 120000 nM |  |  | 
21 | CCCCCCCCCCCCOc1c(CC)cc(Cc2cnc(N)nc2N)cc1CC | 3500 nM | 64000 nM | 350 nM |  | 
22 | CCc1cc(Cc2cnc(N)nc2N)cc(CC)c1O | 120 nM | 16000 nM | 28 nM |  | 
23 | Nc1ncc(Cc2cc(I)c(OCCCOc3ccccc3)c(I)c2)c(N)n1 | 43 nM | 1580 nM |  |  | 
24 | CCc1cc(Cc2cnc(N)nc2N)cc(C)c1O | 350 nM | 39000 nM |  |  | 
25 | COc1c(C)cc(Cc2cnc(N)nc2N)cc1C(C)(C)C | 240 nM | 130000 nM | 77 nM |  | 
26 | COc1c(I)cc(Cc2cnc(N)nc2N)cc1I | 28 nM | 16000 nM | 31 nM |  | 
27 | CCCc1cc(Cc2cnc(N)nc2N)cc(CC)c1OC | 44 nM | 32000 nM | 10 nM |  | 
28 | Cc1cc(Cc2cnc(N)nc2N)cc(Cl)c1N |  | 160000 nM |  |  | 
29 | CCc1cc(Cc2cnc(N)nc2N)cc(C)c1N | 560 nM | 144000 nM |  |  | 
30 | Cc1cc(Cc2cnc(N)nc2N)cc(C(C)(C)C)c1O | 259 nM | 120000 nM |  |  | 
31 | CCc1cc(Cc2cnc(N)nc2N)cc(CC)c1OCCCOc1ccccc1 | 64 nM | 8750 nM | 10 nM |  | 
32 | CCCc1cc(Cc2cnc(N)nc2N)cc(CCC)c1O | 20 nM | 2000 nM | 5.7 nM |  | 
33 | CCCCOc1c(CCC)cc(Cc2cnc(N)nc2N)cc1CCC | 132 nM | 15000 nM | 5.8 nM |  | 
34 | CCCc1cc(Cc2cnc(N)nc2N)cc(CC)c1O | 49 nM | 4450 nM | 15 nM |  | 
35 | CCOc1cc(Cc2cnc(N)nc2N)cc(OCC)c1OCC | 220 nM | 30000 nM | 7.5 nM |  | 
36 | COc1c(C(C)(C)C)cc(Cc2cnc(N)nc2N)cc1C(C)(C)C | 58 nM | 31000 nM | 13 nM |  | 
37 | Cc1cc(Cc2cnc(N)nc2N)cc(C(C)C)c1N | 260 nM |  |  |  | 
38 | CCOc1c(C)c(C)c(Cc2cnc(N)nc2N)c(C)c1C |  |  |  |  | 0%
39 | COc1c(C)cc(Cc2cnc(N)nc2N)cc1C | 500 nM | 250000 nM | 120 nM |  | 
40 | CC(C)c1cc(Cc2cnc(N)nc2N)cc(C(C)C)c1O | 29 nM | 8900 nM | 110 nM |  | 
41 | CCc1cc(Cc2cnc(N)nc2N)cc(C)c1OC | 310 nM | 83000 nM | 120 nM |  | 
42 | Cc1cc(Cc2cnc(N)nc2N)cc(C)c1N | 485 nM | 380000 nM |  |  | 
